Values quoted from earlier work, collected in patent EP1680106B1, “COMBINATION TREATMENT OF OBESITY INVOLVING 4,5-DIHYDRO-1H-PYRAZOLE DERIVATIVES HAVING CB1-ANTAGONISTIC ACTIVITY AND LIPASE INHIBITORS” (Solvay Pharmaceuticals GmbH, priority 2003, dated 2005).

How the values were obtained:
[1] = atypical antipsychotics, follow-up studies
[2] = healthy male volunteers, 5 days with meals; ATL-962 50 mg to 300 mg, orlistat 120 mg tid; placebo 1.4 (+/-1.0)
[3] = test system: carragheenin-induced swelling; conditions: mice

Compound	weight gain with long-term treatment [1]	also measured
Cc1nc2n(c(=O)c1CCN1CCC(c3noc4cc(F)ccc34)CC1)CCCC2 [Risperidone]	modest weight changes that are not dose related	–
CN1CCN(C2=Nc3cc(Cl)ccc3Nc3ccccc32)CC1 [clozapine]	largest weight gains	–
Cc1cc2c(s1)Nc1ccccc1N=C2N1CCN(C)CC1 [olanzapine]	largest weight gains	–
OCCOCCN1CCN(C2=Nc3ccccc3Sc3ccccc32)CC1 [quetiapine]	smallest	–
CCCCCCCCCCC[C@@H](C[C@@H]1OC(=O)[C@H]1CCCCCC)OC(=O)[C@H](CC(C)C)NC=O [tetrahydrolipstatin, (2S,3S,5S)-5-((S)-2-4-methylvaleryloxy)-2-hexyl-3-hydroxy-hexadecanoic acid lactone]	–	average fat excreted [2]: 5.6 (+/-3.8) g/day
O=C1Cc2cc(CCN3CCN(c4nsc5ccccc45)CC3)c(Cl)cc2N1 [ziprasidone]	smallest	–
Ebelactone B	–	carragheenin-induced swelling [3]: reduces carragheenin-induced swelling
